{"source": "patent US20160000088A1", "about": "“PROCESS FOR PRODUCING SILVER-ION ANTIBACTERIAL LIQUID, SILVER-ION ANTIBACTERIAL LIQUID PRODUCED BY SAID PROCESS, AND SILVER-ION-CONTAINING PRODUCT CONTAINING SAID ANTIBACTERIAL LIQUID” (TAIKI CORP., LTD., priority 2013, published 2016)", "origin": "cited, not measured here", "system": "Staphylococcus aureus", "conditions": "silver ion concentration of 10 ppb; nutrient broth added (NB culture)", "data": [{"substance": "silver ions", "values": [{"measurement": "decrease of bacterial count", "value": "≥ 2", "unit": "logs"}]}]}
